This is an account of results in patent US20060148707A1, “Use of ligands to GABA beta receptors” (priority 1999, published 2006).

Holding throughout (type): in vivo, Wistar rats
Experiment [1] has as its system NGF mRNA. Put plainly: NGF mRNA in rat cortex, hippocampus and spinal cord after i.p. treatment (RT-PCR, ratio to S12). The settings on record: 3 and 10 mg/kg i.p., 6 and 24 hours after treatment. The method, then: (§1) Male adult Wistar rats (10-12 weeks) are killed by decapitation. The brains are removed, rapidly dissected with nuclease-free instruments on an ice-cold metal-plate, transferred to sterile cryotubes, and immediately shock-frozen by immersions in liquid nitrogen. Tissues are stored at −80° C. until further processing. Samples for the measurement of neurotrophin protein levels are prepared according to Lüesse et al., Exp. Brain Res. 1998: 119, 1-8. The homogenates are centrifuged at 12,500 g for 60 min, and the supernatants are used for NGF, BDNF and neurotrophin-3 (NT-3) quantification using specific ELISA assays.
(§2) Total cellular RNA is isolated according to the TRIZOL®-protocol (Gibco BRL, Eggenstein) as described by Lüesse et al. (see above).
(§3) Before being subjected to RT-PCR, the RNA extracts are supplemented with internal control RNA and optimized as described in detail by Heese K. et al., 1998, Neural Notes III, 21-23. Total RNA of each sample is first reverse-transcribed into cDNA which in turn is subjected to PCR amplification using primers specific for NGF and BDNF as described by Heese K et al., (see above).
(§4) For the quantification of neurotrophin transcripts, the ratios of densitometric scores for NGF or BDNF and S12 PCR products are calculated. Data are means±SEM of three independent experiments, each done in duplicate. N=4 to 6 for each group.

Experiment [2] has as its system BDNF mRNA. Put plainly: BDNF mRNA in rat cortex, hippocampus and spinal cord after i.p. treatment (RT-PCR, ratio to S12). As to conditions: 3 and 10 mg/kg i.p., 6 and 24 hours after treatment. The method, then:
as §1, §2, §3, §4

Experiment [3] relates to NT-3-protein. Put plainly: NT-3 protein in rat cortex, hippocampus and spinal cord after i.p. treatment (immunoassay). As to conditions: 4 mg/kg i.p. The method, then: as §1
To measure the immunoreactive NGF into the cortex, hippocampus and spinal cord of rats, a two-site ELISA is used (Weskamnp, G. and Otten, U. 1987, J. Neurochem. 48, 1779-1786). Anti-β (2.5S, 7S) NGF and anti-β (2.5S, 7S) NGF-β-gal (clone 27/21) (Boehringer Mannheim) are applied, and the NGF content in the samples is determined by comparison with an NGF standard curve (absorbance measurement at 595 nm using an ELISA reader, Dynatech MR 700). For quantification of BDNF and NT-3 levels, specific immunoassay systems are used according to the manufacturer's (Promega) protocols but modified by Heese, K. and Otten, U., 1998, J. Neurochem. 70, 699-707. Statistical evaluation of results is performed by applying analysis of variance, and the statistical error is the SEM. […]

As for `C[C@H](NC[C@H](O)CP(=O)(O)CC1CCCCC1)c1cccc(C(=O)O)c1` [compound A], in experiment [1], the “increase of NGF mRNA” value was in the range of 2.0 to 2.5 fold. Moreover, the “increase of BDNF mRNA” value in experiment [2] is given as 2 to 3 fold. As for `NCC(CC(=O)O)c1ccc(Cl)cc1` (stereo not drawn) [compound C, β-(aminomethyl)-4-chlorobenze propanoic acid], the “increase of NT-3-protein levels” value in experiment [3] came out at 3 fold.
